We go through 40 compounds from patent US8071778B2, “Substituted heterocyclic ethers and their use in CNS disorders” (Bristol-Myers Squibb Company, priority 2006, dated 2011).

The target in assay [1] is T1, hSERT (Homo sapiens, UniProt P31645).
T1 construct: expressed in transfected cells; host or cells: HEK-293 cells (crude membranes)
Kind of assay: SERT radioligand binding assay. The procedure:
(§1) NK-1 Binding assay. Crude membrane suspensions were prepared for the NK1 and SERT radioligand binding assays from U373 cells or recombinant HEK-293 cells expressing hSERT, respectively. […] The medium is removed from the flasks and the cells rinsed with HBSS without Ca and without Mg. The cells are then incubated for 5-10 minutes in 10 mM Tris-Cl, pH 7.5, 5 mM EDTA before the cells are lifted with a combination of pipetting and scraping, as needed. To prepare membranes, the cell suspension is collected into centrifuge bottles and homogenized for 30 seconds with a Polytron homogenizer. The suspension is centrifuged for 30 min 32,000×g, 4° C., then the supernatant is decanted and the pellet resuspended and homogenized in 50 mM Tris-Cl, pH 7.5, 1 mM EDTA for 10 seconds. The suspension is then centrifuged again for 30 min 32,000×g, 4° C. The supernatant is decanted and the pellet resuspended in 50 mM Tris-Cl, pH 7.5, 1 mM EDTA and briefly homogenized. A Bradford assay (Bio-rad) is performed and the membrane preparation diluted to 2 mg/ml with 50 mM Tris-Cl, pH 7.5, 1 mM EDTA. Aliquots are prepared, and then frozen and stored at −80° C.
(§2) SERT radioligand binding assay. Compounds are dissolved in 100% DMSO at a concentration 100× the desired highest assay concentration, serially diluted 1:3 in 100% DMSO, and 0.4 ul/well of each solution is dispensed to a Nunc polypropylene, round bottom, 384 well plate. […] The contents of the assay plate are then transferred to a Millipore MultiscreenHTS GF/B filter plate which has been pretreated with 0.5% PEI for at least one hour. The plate is vacuum filtered and washed with 7 washes of 100 ul/well of 50 mM Tris-Cl, pH 7.5, 120 mM NaCl, 5 mM KCl chilled to 4° C. The filtration and washing is completed in less than 90 s. The plates are air-dried overnight, 12 ul/well of MicroScint scintillation fluid added, and the plates counted in a Trilux.
(§3) Data analysis. […] Each plate is run in triplicate, and the concentration response curve thus generated is fit using the four-parameter dose response equation, Y=Bottom+(Top-Bottom)/(1+10^((Log IC50−X)*HillSlope)) in order to determine the IC50 value for each compound. The radioligand concentration chosen for each assay corresponds to the Kd concentration determined through saturation binding analysis for each assay.

For assay [2], the target named is T2, NK-1 (Homo sapiens, UniProt P25103).
T2 construct: endogenous in cells; host or cells: U373 cells (crude membranes)
Description: NK1 radioligand binding assay. The following applies: U373 membrane preparation, [125I]Substance P. On the procedure:
as §1
as §2, with “NK1” for “SERT”, “0.6” for “0.4”, “20” for “50”, “0.5% (w/v) BSA” for “120 mM NaCl, 5 mM KCl”
as §3

The mark [3] stands for this setting: HEK-hSERT membrane preparation, [125I]RTI-55, read-out: SERT IC50.

pIC50: −log10 of the molar value. Like-named read-outs stand apart in the source and are kept apart here. A value given as a limit tells only on which side of the number the result lay.

T1 sequence (P31645 whole entry): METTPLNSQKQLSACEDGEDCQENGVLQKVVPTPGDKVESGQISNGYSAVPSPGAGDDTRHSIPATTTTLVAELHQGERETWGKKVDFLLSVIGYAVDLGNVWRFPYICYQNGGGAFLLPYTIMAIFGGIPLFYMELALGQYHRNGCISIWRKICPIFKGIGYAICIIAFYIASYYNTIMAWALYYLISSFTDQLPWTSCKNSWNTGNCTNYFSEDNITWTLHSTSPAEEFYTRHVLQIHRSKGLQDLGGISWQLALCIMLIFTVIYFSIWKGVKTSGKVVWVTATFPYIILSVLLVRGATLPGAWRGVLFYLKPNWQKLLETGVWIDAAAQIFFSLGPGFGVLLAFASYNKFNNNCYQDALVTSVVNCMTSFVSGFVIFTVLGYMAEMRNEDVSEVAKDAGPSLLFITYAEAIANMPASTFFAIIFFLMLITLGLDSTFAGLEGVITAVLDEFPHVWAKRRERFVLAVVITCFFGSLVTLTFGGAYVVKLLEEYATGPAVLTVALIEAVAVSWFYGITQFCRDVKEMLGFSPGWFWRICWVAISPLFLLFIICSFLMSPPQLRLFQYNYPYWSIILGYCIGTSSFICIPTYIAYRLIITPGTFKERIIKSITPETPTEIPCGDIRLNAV
T2 sequence (P25103 whole entry): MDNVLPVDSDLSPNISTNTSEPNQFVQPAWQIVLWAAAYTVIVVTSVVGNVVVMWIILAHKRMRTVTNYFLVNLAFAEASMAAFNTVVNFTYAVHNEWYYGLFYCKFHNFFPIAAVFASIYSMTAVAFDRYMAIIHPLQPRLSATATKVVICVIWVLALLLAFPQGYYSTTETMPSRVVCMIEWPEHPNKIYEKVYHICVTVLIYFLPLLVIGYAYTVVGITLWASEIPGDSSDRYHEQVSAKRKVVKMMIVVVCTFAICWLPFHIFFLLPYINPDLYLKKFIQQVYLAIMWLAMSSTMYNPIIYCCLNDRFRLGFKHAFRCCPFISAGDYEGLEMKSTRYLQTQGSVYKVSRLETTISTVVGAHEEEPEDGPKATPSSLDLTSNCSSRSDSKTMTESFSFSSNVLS

As for `Cc1cc(-c2cc(C(F)(F)F)cc(COCC3(c4ccccc4)CCN(C)CC3)n2)ccc1C#N` [Example 60], the pIC50 in assay [1] and in assay [2] was 7.00 to 11.00 each time.

On to `Fc1ccc(C2(COCc3cc(C(F)(F)F)cc(-c4ccc(F)cc4F)n3)CCNCC2)cc1` [Example 12], for which the pIC50 in assay [1] (setting [3]) and in assay [2] was 7.00 to 11.00 each time.

Consider `CN1CCC(COCc2cc(C(F)(F)F)cc(-c3ccc[nH]3)n2)(c2ccc(F)cc2)CC1` [Example 66], for which the pIC50 in assay [1] and in assay [2] was 7.00 to 11.00 in each case.

Consider `CN1CCC(COCc2cc(C(F)(F)F)cc(N3CCC(F)(F)C3)n2)(c2ccc(F)cc2)CC1` [Example 89], for which the negative logarithm of the IC50 (pIC50) in assay [1] and in assay [2] was 7.00 to 11.00 in each case.

Regarding `CN1CCC(COCc2cc(-c3ccc(C#N)cc3)nc(-c3ccc(C#N)cc3)c2)(c2ccccc2)CC1` [Example 67], the pIC50 (usually the negative decadic logarithm of the IC50, by convention in mol/L) was 6.52 to 7.00 in assay [1] and less than 6.52 in assay [2].

Take `Cc1cc(-c2cc(C(F)(F)F)cc(COCC3(c4ccc(F)cc4)CCNCC3)n2)ccc1C#N` [Example 11]: the pIC50 in assay [1] (setting [3]) and in assay [2] was 7.00 to 11.00 in each case.

On to `FC(F)(F)c1cc(COCC2(c3ccccc3)CCNCC2)nc(-c2ccncc2)c1` [Example 2], for which the pIC50 in assay [1] (setting [3]) and in assay [2] was 7.00 to 11.00 each time.

As to `N#Cc1ccc(-c2cc(C(F)(F)F)cc(COCC3(c4ccc(F)cc4)CCNCC3)n2)cc1` [Example 7], the pIC50 in assay [1] (setting [3]) and in assay [2] was 7.00 to 11.00 in each case.

Regarding `CN1CCC(COCc2ccc(-c3ccc(Cl)cc3)nc2)(c2ccccc2)CC1` [Example 50], the figures for the pIC50 in assay [1] and in assay [2] were 7.00 to 11.00 and less than 6.52, respectively.

As to `FC(F)(F)c1cc(COCC2(c3ccccc3)CCNCC2)nc(N2CCOCC2)c1` [Example 15], the pIC50 is 6.52 to 7.00 in assay [1] (setting [3]) and 7.00 to 11.00 in assay [2].

Regarding `Fc1ccc(C2(COCc3cc(C(F)(F)F)cc(N4CC=CC4)n3)CCNCC2)cc1` [Example 19], the pIC50 in assay [1] (setting [3]) and in assay [2] was 7.00 to 11.00 each time.

As to `CC(OCC1(c2ccccc2)CCN(C)CC1)c1cc(C(F)(F)F)cc(-c2ccc(C#N)cc2)n1` (centres unmarked) [Example 46], the pIC50 in assay [1] and in assay [2] was 7.00 to 11.00 throughout.

Take `Fc1ccc(C2(COCc3cc(C(F)(F)F)cc(N4CCCC4)n3)CCNCC2)cc1` [Example 20]: the pIC50 in assay [1] (setting [3]) and in assay [2] was 7.00 to 11.00 each time.

For the compound `N#Cc1ccc(-c2cncc(COCC3(c4ccccc4)CCNCC3)c2)cc1` [Example 25, 4-(5-(((4-phenylpiperidin-4-yl)methoxy)methyl)pyridine-3yl)benzonitrile], the pIC50 in assay [1] (setting [3]) is 7.00 to 11.00; in assay [2], less than 6.52.

Take `CC1CCCN1c1cc(C(F)(F)F)cc(COCC2(c3ccc(F)cc3)CCN(C)CC2)n1` (centres unmarked) [Example 90]: the negative logarithm of the IC50 (pIC50) in assay [1] and in assay [2] was 7.00 to 11.00 each time.

Turning to `Cc1cc(-c2cc(C(F)(F)F)cc(COCC3(c4ccc(F)cc4)CCN(C)CC3)n2)ccc1C#N` [Example 61], the pIC50 in assay [1] and in assay [2] was 7.00 to 11.00 in each case.

With `CCN(c1cc(C(F)(F)F)cc(COCC2(c3ccc(F)cc3)CCN(C)CC2)n1)C(C)C` [Example 73], the pIC50 in assay [1] and in assay [2] was 7.00 to 11.00 each time.

`CC(OCC1(c2ccccc2)CCNCC1)c1cc(C(F)(F)F)cc(C#N)n1` (centres unmarked) [Example 32]: the negative-log IC50 (pIC50) in assay [1] (setting [3]) and in assay [2] was 7.00 to 11.00 in each case.

On to `CN1CCC(COCc2cc(C(F)(F)F)cc(N3CC[C@H](F)C3)n2)(c2ccc(F)cc2)CC1` [Example 91], for which the pIC50 in assay [1] and in assay [2] was 7.00 to 11.00 throughout.

As for `CN1CCC(COCc2cc(C(F)(F)F)cc(-c3ncon3)n2)(c2ccc(F)cc2)CC1` [Example 37, 3-(6-(((4-(4-fluorophenyl)-1-methylpiperidin-4-yl)methoxy)methyl)-4-(trifluoromethyl)pyridin-2-yl)-1,2,4-oxadiazole], the pIC50 in assay [1] is 7.00 to 11.00; in assay [2], 6.52 to 7.00.

With `N#Cc1ccc(-c2cc(C(F)(F)F)cc(COCC3(c4ccccc4)CCNCC3)n2)cc1` [Example 6], the pIC50 in assay [1] (setting [3]) and in assay [2] was 7.00 to 11.00 each time.

For the compound `CC(OCC1(c2ccc(F)cc2)CCN(C)CC1)c1cc(C(F)(F)F)cc(N2CCC[C@@H]2C)n1` (some centres unmarked) [Example 95], the pIC50 in assay [1] and in assay [2] was 7.00 to 11.00 in each case.

Take `CCC(CC)Nc1cc(C(F)(F)F)cc(COCC2(c3ccc(F)cc3)CCNCC2)n1` [Example 21]: the pIC50 in assay [1] (setting [3]) and in assay [2] was 7.00 to 11.00 in each case.

`CC(OCC1(c2ccccc2)CCNCC1)c1cc(C(F)(F)F)cc(C(F)(F)F)n1` (centres unmarked) [Example 27, 2-(1-((4-phenylpiperidin-4-yl)methoxy)ethyl)-4,6-bis(trifluoromethyl)pyridine]: the pIC50 in assay [1] (setting [3]) and in assay [2] was 7.00 to 11.00 in each case.

On to `CN1CCC(COCc2cc(C(F)(F)F)cc(N3CCCC3)n2)(c2ccc(F)cc2)CC1` [Example 59], for which the pIC50 in assay [1] (setting [3]) and in assay [2] was 7.00 to 11.00 throughout.

In the case of `CN1CCC(COCc2cc(C(F)(F)F)cc(-c3ccc(C#N)cc3)n2)(c2cccc(C(F)(F)F)c2)CC1` [Example 83], the values for the pIC50 in assay [1] and in assay [2] were 6.52 to 7.00 and 7.00 to 11.00, respectively.

In the case of `COc1cc(C(C)OCC2(c3ccc(F)cc3)CCN(C)CC2)cc(-c2ccc(C#N)cc2)n1` (centres unmarked) [Example 79], the pIC50 in assay [1] and in assay [2] was 7.00 to 11.00 throughout.

As to `CN1CCC(COCc2cc(N3CCCC3)cc(C(F)(F)F)n2)(c2ccccc2)CC1` [Example 48], the pIC50 in assay [1] and in assay [2] was 7.00 to 11.00 throughout.

`FC(F)(F)c1ccc(-c2cc(C(F)(F)F)cc(COCC3(c4ccccc4)CCNCC3)n2)cc1` [Example 3]: the pIC50 is 6.52 to 7.00 in assay [1] (setting [3]) and less than 6.52 in assay [2].

Consider `Cc1cc(C(F)(F)F)cc(COCC2(c3ccc(F)cc3)CCN(C)CC2)n1` [Example 36, 2-(((4-(4-fluorophenyl)-1-methylpiperidin-4-yl)methoxy)methyl)-6-methyl-4-(trifluoromethyl)pyridine], for which the pIC50 in assay [1] and in assay [2] was 7.00 to 11.00 throughout.

Regarding `CN1CCC(COCc2cc(C(F)(F)F)cc(-c3ccc(C#N)cc3)n2)(c2ccc(F)cc2)CC1` [Example 47], the pIC50 in assay [1] and in assay [2] was 7.00 to 11.00 throughout.

In the case of `CC(OCC1(c2ccccc2)CCN(C)CC1)c1cc(C(F)(F)F)cc(-c2ccc(F)cc2)n1` (centres unmarked) [Example 34, 2-(4-fluorophenyl)-6-(1-((1-methyl-4-phenylpiperidin-4-yl)methoxy)ethyl)-4-(trifluoromethyl)pyridine], the pIC50 in assay [1] (setting [3]) and in assay [2] was 7.00 to 11.00 in each case.

Take `CC(OCC1(c2ccc(F)cc2)CCN(C)CC1)c1cc(C(F)(F)F)cc(-c2ccc(C#N)cc2)n1` (centres unmarked) [Example 96]: the pIC50 in assay [1] and in assay [2] was 7.00 to 11.00 throughout.

For the compound `CN1CCC(COCc2cc(C(F)(F)F)cc(-c3ccncc3)n2)(c2ccccc2)CC1` [Example 39], the pIC50 in assay [1] and in assay [2] was 7.00 to 11.00 each time.

For the compound `COc1cc(COCC2(c3ccc(F)cc3)CCN(C)CC2)cc(C(F)(F)F)n1` [Example 80], the pIC50 in assay [1] and in assay [2] was 7.00 to 11.00 each time.

In the case of `c1ccc(C2(COCc3cncc(-c4ccco4)c3)CCNCC2)cc1` [Example 9], the pIC50 was 7.00 to 11.00 in assay [1] (setting [3]) and less than 6.52 in assay [2].

On to `CC(OCC1(c2ccccc2)CCNCC1)c1cc(C(F)(F)F)cc(-c2ccc(C#N)cc2)n1` (centres unmarked) [Example 8], for which the pIC50 in assay [1] (setting [3]) and in assay [2] was 7.00 to 11.00 in each case.

`CN1CCC(COCc2cc(C(F)(F)F)cc(N3CC[C@@H](F)C3)n2)(c2ccc(F)cc2)CC1` [Example 92]: the pIC50 in assay [1] and in assay [2] was 7.00 to 11.00 each time.

With `CN1CCC(COCc2cc(C(F)(F)F)cc(-c3ccc(F)cc3)n2)(c2ccccc2)CC1` [Example 42], the pIC50 in assay [1] and in assay [2] was 7.00 to 11.00 each time.

As to `CN1CCC(COCc2cc(C(F)(F)F)cc(-c3ccc(C#N)cc3)n2)(c2cccc(Cl)c2)CC1` [Example 82], the pIC50 in assay [1] and in assay [2] was 7.00 to 11.00 throughout.
